In ChEMBL document CHEMBL5634119, “Design and synthesis of 4th generation EGFR inhibitors against human triple (Del19/T790M/C797S) mutation” (Eur J Med Chem, 2023):
Blank lines part the entries; values can stand above or below the compound they belong to.

Assays:
[1] = Inhibition of EGFR del19/T790M/C797S triple mutant in mouse BAF3 cells assessed as reduction in cell proliferation incubated for 3 days by celltiter-glo assay; type: cell-based; conditions: BaF3, 72 h
[2] = Inhibition of wild type EGFR in mouse BAF3 cells assessed as reduction in cell proliferation incubated for 3 days by celltiter-glo assay; type: cell-based; conditions: BaF3, 72 h
HCC827 = assay: Antiproliferative activity against human HCC827 cells harboring EGFR Del19 mutant incubated for 72 hrs by SRB assay; type: functional, cell-based; conditions: HCC827, 72 h
NCI-H1975 [3] = assay: Antiproliferative activity against human NCI-H1975 cells harboring EGFR L858R/T790M mutant incubated for 72 hrs by SRB assay; type: functional, cell-based; conditions: NCI-H1975, 72 h
PC-9 [4] = assay: Antiproliferative activity against human PC-9 cells harboring EGFR Del19/T790M/C797S mutant incubated for 72 hrs by SRB assay; type: functional, cell-based; conditions: PC-9, 72 h
NCI-H1975 [5] = assay: Antiproliferative activity against human NCI-H1975 cells harboring EGFR L858R/T790M/C797S mutant incubated for 72 hrs by SRB assay; type: functional, cell-based; conditions: NCI-H1975, 72 h
A-431 = assay: Antiproliferative activity against human A-431 cells harboring wild type EGFR incubated for 72 hrs by SRB assay; type: functional, cell-based; conditions: A-431, 72 h
PC-9 [6] = assay: Potency index, ratio of Brigatinib IC50 to test compound IC50 for antiproliferative activity against human PC-9 cells harboring EGFR Del19/T790M/C797S mutant incubated for 72 hrs by SRB assay; type: functional
NCI-H1975 [7] = assay: Potency index, ratio of Brigatinib IC50 to test compound IC50 for antiproliferative activity against human NCI-H1975 cells harboring EGFR L858R/T790M/C797S mutant incubated for 72 hrs by SRB assay; type: functional
[8] = target: T1, Epidermal growth factor receptor (Homo sapiens, UniProt P00533, C797S/EX19DEL/T790M); assay: Inhibition of EGFR del19/T790M/C797S triple mutant (unknown origin) in presence of ATP by FRET assay
T1 sequence (P00533 whole entry, looked up, stated change not applied): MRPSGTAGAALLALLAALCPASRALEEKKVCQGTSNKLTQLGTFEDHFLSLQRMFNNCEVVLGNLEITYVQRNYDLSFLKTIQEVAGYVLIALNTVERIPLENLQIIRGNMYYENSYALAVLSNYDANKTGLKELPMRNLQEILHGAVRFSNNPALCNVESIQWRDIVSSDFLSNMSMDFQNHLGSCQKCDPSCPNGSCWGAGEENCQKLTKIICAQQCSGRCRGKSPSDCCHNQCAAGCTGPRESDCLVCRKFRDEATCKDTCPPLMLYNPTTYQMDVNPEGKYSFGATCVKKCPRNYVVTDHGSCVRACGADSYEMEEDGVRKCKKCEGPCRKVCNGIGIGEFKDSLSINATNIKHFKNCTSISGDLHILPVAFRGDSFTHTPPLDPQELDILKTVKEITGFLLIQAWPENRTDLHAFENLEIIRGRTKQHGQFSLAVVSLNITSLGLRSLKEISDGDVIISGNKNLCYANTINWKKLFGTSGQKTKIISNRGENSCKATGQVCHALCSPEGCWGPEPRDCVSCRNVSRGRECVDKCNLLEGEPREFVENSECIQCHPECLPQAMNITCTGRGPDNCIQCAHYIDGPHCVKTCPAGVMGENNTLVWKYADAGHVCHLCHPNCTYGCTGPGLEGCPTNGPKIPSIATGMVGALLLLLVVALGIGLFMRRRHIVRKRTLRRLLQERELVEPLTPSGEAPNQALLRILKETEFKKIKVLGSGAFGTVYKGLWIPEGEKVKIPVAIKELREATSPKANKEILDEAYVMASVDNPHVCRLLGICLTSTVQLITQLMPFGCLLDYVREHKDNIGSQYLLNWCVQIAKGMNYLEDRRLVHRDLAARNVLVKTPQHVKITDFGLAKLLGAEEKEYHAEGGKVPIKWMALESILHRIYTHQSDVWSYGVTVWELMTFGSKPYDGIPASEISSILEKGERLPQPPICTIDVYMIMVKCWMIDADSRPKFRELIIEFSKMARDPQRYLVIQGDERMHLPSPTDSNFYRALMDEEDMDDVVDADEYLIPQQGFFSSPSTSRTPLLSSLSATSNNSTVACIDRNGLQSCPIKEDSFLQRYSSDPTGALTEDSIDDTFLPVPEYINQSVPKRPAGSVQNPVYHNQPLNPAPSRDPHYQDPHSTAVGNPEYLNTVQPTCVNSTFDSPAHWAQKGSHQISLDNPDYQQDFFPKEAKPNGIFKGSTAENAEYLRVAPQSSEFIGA

[9] = target: Epidermal growth factor receptor (Homo sapiens, UniProt P00533, C797S/L858R/T790M); assay: Inhibition of EGFR L858R/T790M/C797S triple mutant (unknown origin) in presence of ATP by FRET assay
Sequence of Epidermal growth factor receptor (Homo sapiens, UniProt P00533, C797S/L858R/T790M) (P00533 25-1210 T790M/C797S/L858R limits assumed): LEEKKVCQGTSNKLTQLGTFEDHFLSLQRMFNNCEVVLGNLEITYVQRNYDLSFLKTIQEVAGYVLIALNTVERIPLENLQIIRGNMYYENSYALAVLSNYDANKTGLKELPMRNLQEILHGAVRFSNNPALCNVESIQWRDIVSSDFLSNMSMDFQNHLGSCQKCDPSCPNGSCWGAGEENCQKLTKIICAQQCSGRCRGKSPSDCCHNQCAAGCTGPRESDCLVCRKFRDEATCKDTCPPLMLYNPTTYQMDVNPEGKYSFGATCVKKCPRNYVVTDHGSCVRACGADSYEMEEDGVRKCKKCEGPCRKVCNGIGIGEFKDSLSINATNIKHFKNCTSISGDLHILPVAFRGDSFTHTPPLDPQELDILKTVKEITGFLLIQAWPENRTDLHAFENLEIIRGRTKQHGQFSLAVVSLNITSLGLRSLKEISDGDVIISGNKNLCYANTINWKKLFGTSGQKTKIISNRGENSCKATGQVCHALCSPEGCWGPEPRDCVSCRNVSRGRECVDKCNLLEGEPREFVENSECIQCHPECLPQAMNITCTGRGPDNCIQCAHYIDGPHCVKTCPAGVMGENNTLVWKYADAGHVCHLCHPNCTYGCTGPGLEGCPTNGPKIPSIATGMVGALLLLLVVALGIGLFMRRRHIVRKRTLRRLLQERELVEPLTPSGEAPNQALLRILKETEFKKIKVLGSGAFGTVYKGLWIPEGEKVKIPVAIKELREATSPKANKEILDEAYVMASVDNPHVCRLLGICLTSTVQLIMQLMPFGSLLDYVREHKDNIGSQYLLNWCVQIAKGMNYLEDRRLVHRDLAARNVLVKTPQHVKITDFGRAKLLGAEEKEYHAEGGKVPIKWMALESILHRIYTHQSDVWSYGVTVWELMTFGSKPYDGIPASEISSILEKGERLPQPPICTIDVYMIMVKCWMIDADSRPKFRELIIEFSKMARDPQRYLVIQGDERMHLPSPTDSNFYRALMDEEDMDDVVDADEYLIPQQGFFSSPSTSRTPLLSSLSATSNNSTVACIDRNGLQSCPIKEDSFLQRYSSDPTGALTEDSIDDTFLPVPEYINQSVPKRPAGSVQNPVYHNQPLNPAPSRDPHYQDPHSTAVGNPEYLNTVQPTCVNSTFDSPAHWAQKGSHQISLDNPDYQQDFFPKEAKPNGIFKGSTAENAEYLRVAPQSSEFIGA

[10] = target: T2, Epidermal growth factor receptor (Homo sapiens, UniProt P00533); assay: Inhibition of wild type EGFR (unknown origin) in presence of ATP by FRET assay
T2 sequence (P00533 whole entry): as the sequence (P00533 whole entry, looked up, stated change not applied) above

[11] = Microsomal stability in human liver microsome assessed as parent compound remaining preincubated with compound for 60 mins and measured after 1 hr by HPLC analysis; type: ADME; conditions: liver microsomes, time 2 hrs, read-out: Stability
[12] = Microsomal stability in mouse liver microsome assessed as parent compound remaining preincubated with compound for 60 mins and measured after 1 hr by HPLC analysis; type: ADME; conditions: liver microsomes, time 2 hrs, read-out: Stability
[13] = Plasma protein binding in human assessed as unbound fraction measured after 6 hrs by rapid equilibrium dialysis based LC-MS/MS analysis; type: ADME, cell-free
[14] = Plasma protein binding in mouse assessed as unbound fraction measured after 6 hrs by rapid equilibrium dialysis based LC-MS/MS analysis; type: ADME, cell-free
[15] = Stability in human plasma assessed as parent compound remaining measured after 2 hrs by LC-MS/MS analysis; type: ADME, cell-free; conditions: read-out: Stability
[16] = Stability in mouse plasma assessed as parent compound remaining measured after 2 hrs by LC-MS/MS analysis; type: ADME, cell-free; conditions: read-out: Stability
[17] = target: T1, Epidermal growth factor receptor; assay: Inhibition of EGFR phosphorylation in human PC-9 cells harboring Del19/T790M/C797S mutant incubated for 6 hrs by Western blot analysis; type: cell-based
[18] = Inhibition of ERK phosphorylation in human PC-9 cells harboring Del19/T790M/C797S mutant incubated for 6 hrs by Western blot analysis; type: cell-based; conditions: PC-9, 6 h
[19] = Inhibition of AKT phosphorylation in human PC-9 cells harboring Del19/T790M/C797S mutant incubated for 6 hrs by Western blot analysis; type: cell-based; conditions: PC-9, 6 h
[20] = target: T2, Epidermal growth factor receptor; assay: Inhibition of EGFR phosphorylation in human A-431 cells harboring wild type EGFR incubated for 6 hrs by Western blot analysis; type: cell-based
[21] = Inhibition of ERK phosphorylation in human A-431 cells harboring wild type EGFR incubated for 6 hrs by Western blot analysis; type: cell-based; conditions: A-431, 6 h
[22] = Inhibition of AKT phosphorylation in human A-431 cells harboring wild type EGFR incubated for 6 hrs by Western blot analysis; type: cell-based; conditions: A-431, 6 h
[23] = AUC (0 to 24 hrs) in mouse at 5 mg/kg, iv measured upto 24 hrs by LC-MS/MS analysis; type: ADME, organism-based; conditions: in vivo
[24] = AUC (0 to 24 hrs) in mouse at 75 mg/kg, po measured upto 24 hrs by LC-MS/MS analysis; type: ADME, organism-based; conditions: in vivo
[25] = Cmax in mouse at 5 mg/kg, iv measured upto 24 hrs by LC-MS/MS analysis; type: ADME, organism-based; conditions: in vivo
[26] = Cmax in mouse at 75 mg/kg, po measured upto 24 hrs by LC-MS/MS analysis; type: ADME, organism-based; conditions: in vivo
[27] = Tmax in mouse at 75 mg/kg, po measured upto 24 hrs by LC-MS/MS analysis; type: ADME, organism-based; conditions: in vivo
[28] = Half life in mouse at 5 mg/kg, iv measured upto 24 hrs by LC-MS/MS analysis; type: ADME, organism-based; conditions: in vivo
[29] = Half life in mouse at 75 mg/kg, po measured upto 24 hrs by LC-MS/MS analysis; type: ADME, organism-based; conditions: in vivo
[30] = Clearance in mouse at 5 mg/kg, iv measured upto 24 hrs by LC-MS/MS analysis; type: ADME, organism-based; conditions: in vivo
[31] = Volume of distribution at steady state in mouse at 5 mg/kg, iv measured upto 24 hrs by LC-MS/MS analysis; type: ADME, organism-based; conditions: in vivo, read-out: Vdss
[32] = Oral bioavailability in mouse at 75 mg/kg measured upto 24 hrs by LC-MS/MS analysis; type: ADME, organism-based; conditions: in vivo
[33] = Toxicity in NOD-SCID mouse xenografted with human PC-9 cells harboring Del19/T790M/C797S triple mutant assessed as body weight loss at 50 mg/kg, sc bid administered for 14 days; type: organism-based; conditions: in vivo, 336 h, time 14 day
[34] = Toxicity in NOD-SCID mouse xenografted with human PC-9 cells harboring Del19/T790M/C797S triple mutant assessed as clinical signs at 50 mg/kg, sc bid administered for 14 days; type: organism-based; conditions: in vivo, 336 h, time 14 day

Structure (SMILES): CN1CCN(c2ccc(Nc3nc(Nc4ccccc4N(C4CC4)S(C)(=O)=O)c4cc[nH]c4n3)cc2F)CC1
- IC50 [1]: 55.9 nM
- IC50 [2]: 273 nM

Structure (SMILES): CN1CCN(c2ccc(Nc3nc(Nc4ccccc4NS(C)(=O)=O)c4cc[nH]c4n3)cc2F)CC1
- IC50 [1]: 125 nM
- IC50 [2]: 2640 nM

Structure (SMILES): CCCN1CCN(C2CCN(c3ccc(Nc4nc(Nc5ccccc5N(C)S(C)(=O)=O)c5cc[nH]c5n4)cc3F)CC2)CC1
- IC50 [1]: 84.2 nM
- IC50 [2]: 754 nM

Structure (SMILES): Cc1cc(Nc2nc(Nc3ccccc3N(C)S(C)(=O)=O)c3cc[nH]c3n2)ccc1N1CCN(C)CC1
- IC50 [1]: 30.8 nM
- IC50 [2]: 41.7 nM

Structure (SMILES): CCS(=O)(=O)N(C)c1ccccc1Nc1nc(Nc2ccc(N3CCN(C)CC3)c(F)c2)nc2[nH]ccc12
- IC50 [1]: 16.4 nM
- IC50 [2]: 238 nM

- IC50 (HCC827): 84.2 nM
- IC50 (NCI-H1975 [3]): 98.8 nM
- IC50 (PC-9 [4]): 151 nM
- IC50 (NCI-H1975 [5]): 130 nM
- IC50 (A-431): 484 nM
- IC50 [8]: 4.2 nM
- IC50 [9]: 4.7 nM
- IC50 [10]: 10300 nM
- remaining at 1 h [11]: 57.3%
- remaining at 1 h [12]: 24%
- fraction unbound at 6 h [13]: 0.937
- fraction unbound at 6 h [14]: 0.946
- remaining at 2 h [15]: 99.1%
- remaining at 2 h [16]: 97.4%
- IC50 [17]: 7.4 nM
- IC50 [18]: 26 nM
- IC50 [19]: 7.1 nM
- IC50 [20]: 1180 nM
- IC50 [21]: 1670 nM
- IC50 [22]: 1820 nM
- AUC(0-t) at 24 h [23]: 1560 ng·h/mL
- AUC(0-t) at 24 h [24]: 35800 ng·h/mL
- Cmax [25]: 1560 ng/mL
- Cmax [26]: 5480 ng/mL
- Tmax [27]: 2 h
- half-life [28]: 1.7 h
- half-life [29]: 3.5 h
- clearance [30]: 53.3 mL/min/kg
- Vd [31]: 10.8 L/kg
- bioavailability [32]: > 100%
Structure (SMILES): CCN1CCN(C2CCN(c3ccc(Nc4nc(Nc5ccccc5N(C)S(C)(=O)=O)c5cc[nH]c5n4)cc3F)CC2)CC1
- IC50 [1]: 15.5 nM
- IC50 [2]: 713 nM
- Ratio IC50 (PC-9 [6]): 5.4
- Ratio IC50 (NCI-H1975 [7]): 5.4
- Activity [33]: Non-Toxic
- Activity [34]: Non-Toxic

Structure (SMILES): CC(C)S(=O)(=O)N(C)c1ccccc1Nc1nc(Nc2ccc(N3CCN(C)CC3)c(F)c2)nc2[nH]ccc12
- IC50 [1]: 49 nM
- IC50 [2]: 185 nM

Structure (SMILES): CN(c1ccccc1Nc1nc(Nc2ccc(N3CCN(C4CC4)CC3)c(F)c2)nc2[nH]ccc12)S(C)(=O)=O
- IC50 [1]: 383 nM
- IC50 [2]: 790 nM

Structure (SMILES): CC(C)N(c1ccccc1Nc1nc(Nc2ccc(N3CCN(C)CC3)c(F)c2)nc2[nH]ccc12)S(C)(=O)=O
- IC50 [1]: 71.2 nM
- IC50 [2]: 307 nM

Structure (SMILES): CC(C)N1CCN(C2CCN(c3ccc(Nc4nc(Nc5ccccc5N(C)S(C)(=O)=O)c5cc[nH]c5n4)cc3F)CC2)CC1
- IC50 [1]: 82.4 nM
- IC50 [2]: 620 nM

- IC50 (HCC827): 121 nM
- IC50 (NCI-H1975 [3]): 178 nM
- IC50 (PC-9 [4]): 155 nM
- IC50 (NCI-H1975 [5]): 202 nM
- IC50 (A-431): 334 nM
- IC50 [8]: 9.2 nM
- IC50 [9]: 12.7 nM
- IC50 [10]: > 10000 nM
- remaining at 1 h [11]: 41.9%
- remaining at 1 h [12]: 33%
- fraction unbound at 6 h [13]: 0.916
- fraction unbound at 6 h [14]: 0.926
- remaining at 2 h [15]: 91.8%
- remaining at 2 h [16]: 97.8%
- IC50 [17]: 9.6 nM
- IC50 [18]: 23 nM
- IC50 [19]: 27 nM
- IC50 [20]: 1320 nM
- IC50 [21]: 3940 nM
- IC50 [22]: 2160 nM
- AUC(0-t) at 24 h [23]: 978 ng·h/mL
- AUC(0-t) at 24 h [24]: 34000 ng·h/mL
- Cmax [25]: 4550 ng/mL
- Cmax [26]: 6030 ng/mL
- Tmax [27]: 0.5 h
- half-life [28]: 0.7 h
- half-life [29]: 2.3 h
- clearance [30]: 85 mL/min/kg
- Vd [31]: 2 L/kg
- bioavailability [32]: > 100%
Structure (SMILES): CCN1CCN(c2ccc(Nc3nc(Nc4ccccc4N(C)S(C)(=O)=O)c4cc[nH]c4n3)cc2F)CC1
- IC50 [1]: 10.1 nM
- IC50 [2]: 667 nM
- Ratio IC50 (PC-9 [6]): 5.4
- Ratio IC50 (NCI-H1975 [7]): 5.4
- Activity [33]: Non-Toxic
- Activity [34]: Non-Toxic

Structure (SMILES): CC(C)N1CCN(c2ccc(Nc3nc(Nc4ccccc4N(C)S(C)(=O)=O)c4cc[nH]c4n3)cc2F)CC1
- IC50 [1]: 157 nM
- IC50 [2]: 670 nM

Structure (SMILES): COc1cc(Nc2nc(Nc3ccccc3N(C)S(C)(=O)=O)c3cc[nH]c3n2)ccc1N1CCN(C)CC1
- IC50 [1]: 36.7 nM
- IC50 [2]: 41.4 nM

- IC50 (HCC827): 370 nM
- IC50 (NCI-H1975 [3]): 211 nM
- IC50 (PC-9 [4]): 262 nM
- IC50 (NCI-H1975 [5]): 196 nM
- IC50 (A-431): 317 nM
- IC50 [8]: 4 nM
- IC50 [9]: 4.9 nM
- IC50 [10]: 4580 nM
Structure (SMILES): CN1CCN(C2CCN(c3ccc(Nc4nc(Nc5ccccc5N(C)S(C)(=O)=O)c5cc[nH]c5n4)cc3F)CC2)CC1
- IC50 [1]: 11.4 nM
- IC50 [2]: 254 nM
